Experimental findings from patent publication US12484574B2, “Agent for promoting undifferentiation and cryoprotective agent using aprotic zwitterion” (JAPAN SCIENCE AND TECHNOLOGY AGENCY, priority 2019, dated 2025) are described below.

One series deals with Wild-type zebrafish AB*. The series can be described thus: Influence on development of zebrafish. In kind it is in vivo. The conditions noted are these: fertilized eggs cultured 1.5 to 24 hours. Here is the method: All experiments were conducted based on a protocol approved by the animal experiment committee of Kanazawa University. Wild-type zebrafish AB* was raised at 28.5° C. with 14-hour light/10-hour dark cycles in a circulating water system. The medium used was E3 medium (5 mM NaCl, 0.17 mM KCl, 0.33 mM CaCl2, 0.33 mM MgSO4). The medium was supplemented with 1%, 2%, 5% or 10% DMSO or HLS (OE2imC3C). For each test group, eggs were fertilized and then cultured for 1.5 to 24 hours. The embryos thus cultured were washed with E3 medium twice and treated with 1-phenyl-2-thiourea (FUJIFILM Wako Pure Chemical Corp.) in order to prevent pigmentation. The embryos were stained with 0.6 mg/mL o-dianisidine (Tokyo Chemical Industry Co., Ltd.) for 15 minutes and fixed in 4% paraformaldehyde (FUJIFILM Wako Pure Chemical Corp.). The embryos were washed with phosphate-buffered saline containing 0.1% Tween (Sigma-Aldrich Co. LLC) twice. The survival rate was similar between DMSO and HLS (OE2imC3C) up to the 2% addition groups, whereas the survival rate differed largely therebetween in the 5% addition groups.

Series [1] concerns Mouse fibroblasts C57BL/6-GFP. The series can be described thus: Cell freezing, slow freezing method, viable cell count after thawing (Example 2). Format: cell-based. The settings on record: 5% by weight in H2O; frozen to −80° C. at −1° C./min; FIG. 4. Here is the method:
(§1) CultureSure® cryopreservation solution (manufactured by FUJIFILM Wako Pure Chemical Corp.) (hereinafter, referred to as “FM”) • H2O • 5% by weight of DMSO/H2O • 5% by weight of OE2imC3C/H2O
(§2) The cells to be frozen (two types) were centrifugally recovered by trypsin treatment and diluted with Dulbecco's modified Eagle medium (DMEM), and each cell concentration was measured. The types and cell concentrations of the cells are as follows. • Human skin fibroblasts 5.0×10^5 cells/100 μl • Mouse fibroblasts C57BL/6-GFP 5.0×10^5 cells/100 μl
(§3) Subsequently, the cells of each type were dispensed at 1 ml/tube to 1.5 ml tubes, centrifuged, suspended in 100 μl each of the cryopreservation solutions described above, and frozen at a cooling temperature of −80° C. at a cooling rate of −1° C./min using a cell freezing container Mr. Frosty®.
(§4) 1 ml of a medium was added to the cryopreservation vial for thawing, and a supernatant was removed by centrifugation. Subsequently, the cells obtained by centrifugation were resuspended in a medium, followed by the measurement of a viable cell count. Then, culture was started in a 6-well plate.

For another series, the system named is Human skin fibroblasts. Nature of the series: Cell freezing, slow freezing method, viable cell count after thawing (Examples 2, 3). In kind it is cell-based. The conditions noted are these: 5% by weight in H2O; frozen to −80° C. at −1° C./min; FIG. 3, FIG. 6. As for the experimental part:
as §1, §2, §3
1 ml of a medium was added to the cryopreservation vial for thawing, and a supernatant was removed by centrifugation. Subsequently, the cells obtained by centrifugation were resuspended in a medium, followed by the measurement of a viable cell count. Then, culture was started in a 6-well plate. […]
The cells to be frozen were centrifugally recovered by trypsin treatment and diluted with Dulbecco's modified Eagle medium (DMEM), and the cell concentration was measured. […]

Series [2] has as its system Human skin fibroblasts / Mouse fibroblasts C57BL/6-GFP. The series can be described thus: Cell state 24 hours after start of culture, slow freezing method (microscope). Format: cell-based. The settings on record: 5% by weight in H2O, thawed, cultured 24 hours, cell type of FIG. 5 not stated. As for the experimental part: as §2, §3, §4
24 hours after the start of culture, the sample was fixed in 4% paraformaldehyde (PFA) and observed under a microscope.

Entries after “also recorded” stand apart in the source; their conditions may differ.

Consider `COCCOCCn1cc[n+](CCCC(=O)[O-])c1` [OE2imC3C], for which the Survival rate in the series with Wild-type zebrafish AB* (Concentration 1 % (v/v for DMSO, w/v for HLS) in E3 medium) is on record as 27/27; with Wild-type zebrafish AB* (Concentration 2 % (v/v for DMSO, w/v for HLS) in E3 medium), 27/27; with Wild-type zebrafish AB* (Concentration 5 % (v/v for DMSO, w/v for HLS) in E3 medium), 27/27; with Wild-type zebrafish AB* (Concentration 10 % (v/v for DMSO, w/v for HLS) in E3 medium), 0/27. Also, the results for the “viable cell count after thawing” value (in series [1]; in the series with Human skin fibroblasts) were “larger viable cell count than that in the case of using conventional DMSO” and “larger viable cell count than that in the case of using conventional DMSO; also recorded: superior to the commercially available cryopreservation solution (FM)”, respectively. In addition, the “cell state 24 hours after the start of culture” value in series [2] is reported as “confirmed to adhere to the dish bottom”.
